Source: PMC10901353, “Identification of a potent and selective LAPTc inhibitor by RapidFire-Mass Spectrometry, with antichagasic activity” (PLOS Neglected Tropical Diseases, 2024)
Values joined by “and” are separate entries in the source; they are usually repeats but may differ in a detail not shown here. Equal values may be shown once. Read-outs that look alike come from different tables or passages of the source. Blank lines part the entries; values can stand above or below the compound they belong to.

How the values were obtained:
[1] = target: T1, LAPTc (acidic M17 leucyl-aminopeptidase from T. cruzi) (Trypanosoma cruzi, UniProt V5BWE3); assay: Dose-response studies for LAPTc inhibition by RapidFire-MS; type: biochemical; conditions: for Emax: read-out: Maximum Effect; for Hit Confirmation: whether primary screen hit confirmed in potency experiment
Protocol: (§1) This assay was previously described. The assay was performed in 384-well clear F-bottom polypropylene plates with a final reaction volume of 15 μL. The reaction mixture contained 7.5 μL LAPTc in 50 mM Tris-HCl, pH 7.5, 0.005% NP-40 and 7.5 μL LSTVIVR peptide substrate (Cambridge Research Biochemicals, Billingham, UK) in the same buffer was added to start the reaction. The reaction was performed at room temperature for 40 min and then stopped with 85 μL 1% formic acid containing 0.15 mg/mL STVIVR* internal standard (Cambridge Research Biochemicals, Billingham, UK).
To generate half-maximum inhibitory concentration (IC50) data for LAPTc, 10-point dose-response curves with 100 μM as highest concentration and 1:2 dilution in DMSO (0.195–100 μM range) were prepared in 384 well plates. All other experimental conditions were as described above. All IC50 curve fitting was performed by four-parameter logistic dose-response curve fit using ActivityBase XE (IDBS). At least three replicates were generated for each hit compound.

[2] = test system: PfA-M17 (M17 LAP from Plasmodium falciparum); conditions: cited from earlier work
[3] = test system: intracellular T. cruzi amastigotes; set-up: method as in PMID 30001347; conditions: reported previously in this assay ref 33; cited from earlier work
[4] = target: T1, LAPTc (acidic M17 leucyl-aminopeptidase from T. cruzi); assay: High-throughput single point screening for LAPTc inhibitors by RapidFire-MS; type: biochemical; conditions: primary screen, 30 μM, single replicate; read-out: Percent Inhibition
Protocol: as §1
Single point screening of a library of 3329 compounds was performed in 384-well clear plates (Greiner 781101) at room temperature. Test compounds (45 nL in DMSO) were transferred to assay plates by an ECHO 550 acoustic dispenser (Labcyte). LAPTc was tested at 3 nM with 150 μM (approximately the value of the apparent Michaelis-Menten constant -appKM- [16]) LSTVIVR peptide substrate in a 40 min reaction. Before addition of substrate, LAPTc was preincubated with 45 nL compounds or DMSO for 15 min. Compounds, dissolved in DMSO, were tested at 30 μM. Controls without compound (the same volume of DMSO, 0% inhibitory effect) and without enzyme and compound (100% inhibitory effect) were prepared. The experiment was performed without replicates. The remaining experimental conditions were maintained as previously described. Data were processed and analysed through ActivityBase XE (IDBS). The selection criterion for hits in this single point screen was percent inhibition larger than the mean plus three standard deviations. All primary screening data are available in ChEMBL (see Data Availability statement).

[5] = test system: intracellular T. cruzi amastigotes; assay: T. cruzi intracellular assay (high-content imaging, infected Vero cells); type: cell-based, Trypanosoma cruzi; set-up: Max Effect (T. cruzi): unit not given here; conditions: for EC50 / Emax: Trypanosoma cruzi, Vero; for Emax: read-out: Max Effect (T. cruzi)
Protocol: T. cruzi parasite, TcI strain Silvio X10/7 subclone A1 [34] was maintained in culture as previously described. Parasites were maintained as amastigotes by passaging on a weekly basis in Vero cells. Culture maintenance infections were carried out at an MOI (multiplicity of infection) of 1.5.
(§2) This assay was performed as described with the only modification that treatment was 96 h instead of 72 h. Briefly, Vero cells were infected overnight with tissue culture derived T. cruzi trypomastigotes in T225 tissue culture flasks (MOI 5). Any remaining free trypomastigotes were washed away with serum free MEM and the infected Vero cells were harvested by trypsinisation. Compounds (250 nL in DMSO) were dispensed using LabCyte ECHO (Beckman Coulter Life Sciences, USA) into each well of Corning black flat bottomed 384-well plates (Corning, USA). […] The infected Vero cells were then plated into the plates containing the compounds, at 4,000 cells per well in MEM media with 1% FCS. After 96 h incubation at 37°C in presence of 5% CO2, the plates were fixed with 4% formaldehyde for 20 min at room temperature and stained with 5 μg/mL Hoechst 33342. The plates were imaged on a Perkin Elmer Operetta high-content imaging system using a 20× objective. Images were analyzed using the Columbus system (Perkin Elmer). The algorithm first identified the Vero nuclei followed by demarcation of the cytoplasm and identification of intracellular amastigotes. This algorithm reported percent infected Vero cell and total number of Vero cells. All potency determinations were carried out in at least three independent replicates and are reported as pEC50 +/- standard deviation. pEC50 = -log(EC50[M]).

[6] = Cytotoxicity against infected Vero host cells in T. cruzi intracellular assay; type: cell-based, African green monkey; set-up: Max Effect (Vero): unit not given here; conditions: African green monkey, infected Vero host cells, 96 h, read-out: pCC50 (Vero) +/- StDev (converted)
Protocol: (§3) Briefly, these cells were maintained at 37°C and 5% CO2 in MEM supplemented with 10% FCS, sub-culturing every 2–3 days at a ratio of 1:5 after 5 min treatment with Trypsin-EDTA (Gibco).
as §2, with “After 96 h incubation at 37°C in presence of 5% CO2, the plates were fixed with 4% formaldehyde for 20 min at room temperature and stained with 5 μg/mL Hoechst 33342.” left out

Vero cells = assay: as above; type: cell-based, African green monkey; set-up: Max Effect (Vero): unit not given here; conditions: for Max Effect (Vero) / pEC50 (Vero): individual replicates
Protocol: as §3
as §2, with “After 96 h incubation at 37°C in presence of 5% CO2, the plates were fixed with 4% formaldehyde for 20 min at room temperature and stained with 5 μg/mL Hoechst 33342.” left out

[7] = Cytotoxicity assay on human HepG2 cells (resazurin); type: cell-based; conditions: human, 72 h
HepG2 cells = assay: as above; type: cell-based; conditions: for Max Effect (HepG2) / pEC50 (HepG2): individual replicates
[8] = average of four independent replicates, read-out: pIC50 +/- StDev (LAPTc) (converted)
[9] = Initial hit confirmation, single replicate
[10] = Initial hit confirmation, single replicate, read-out: pIC50 (converted)
[11] = Replicate data generation, individual replicates
[12] = Replicate data generation, individual replicates, read-out: pIC50 (converted)
[13] = 96 h, four independent experiments, read-out: pEC50 (T. cruzi) +/- StDev (converted)
[14] = individual replicates, read-out: pEC50 (T. cruzi) (converted)
[15] = Vero cells infected with T. cruzi
[16] = HepG2 cells, two independent experiments, read-out: pCC50 (HepG2) (converted)

T1 sequence (V5BWE3 entry or part of it): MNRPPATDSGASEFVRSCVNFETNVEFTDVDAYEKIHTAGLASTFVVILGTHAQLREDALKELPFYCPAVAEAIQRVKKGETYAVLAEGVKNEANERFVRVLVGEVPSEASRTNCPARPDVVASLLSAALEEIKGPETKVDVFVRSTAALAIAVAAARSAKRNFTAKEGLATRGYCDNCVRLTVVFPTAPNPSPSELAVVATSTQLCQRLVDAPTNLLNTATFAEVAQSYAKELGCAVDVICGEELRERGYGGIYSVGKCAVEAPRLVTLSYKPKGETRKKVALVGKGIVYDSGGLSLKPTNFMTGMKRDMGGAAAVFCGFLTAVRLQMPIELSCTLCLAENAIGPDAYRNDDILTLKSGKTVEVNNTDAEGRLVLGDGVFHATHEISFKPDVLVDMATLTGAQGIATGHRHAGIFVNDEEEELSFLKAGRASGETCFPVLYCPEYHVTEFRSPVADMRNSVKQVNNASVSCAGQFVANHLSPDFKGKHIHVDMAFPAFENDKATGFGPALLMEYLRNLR

- IC50 [1, 8]: 0.24 µM
SMILES: CC(C)C[C@H](NC(=O)[C@@H](O)[C@H](N)Cc1ccccc1)C(=O)O [bestatin, reference compound]
- Ki [2]: 0.025 µM

SMILES: CC(C)C[C@@H](NC(=O)[C@H](O)[C@@H](N)Cc1ccc([N+](=O)[O-])cc1)C(=O)O [nitrobestatin]
- Ki [2]: 0.0027 µM

SMILES: CC(C)(C)C(=O)NC(C(=O)NO)c1ccc(-c2cc(F)c(F)c(F)c2)cc1 (stereo not shown) [Compound 10o]
- Ki [2]: 0.06 µM

SMILES: CC(C)(C)C(=O)NC(C(=O)NO)c1ccc(-n2cccn2)cc1 (stereo not shown) [Compound 13d]
- Ki [2]: 0.028 µM

SMILES: CC1CS(=O)(=O)CCN1/N=C/c1ccc([N+](=O)[O-])o1 (stereo not shown) [nifurtimox]
- EC50 [3]: 0.8 µM
- pEC50 (T. cruzi) [3]: 6.1

SMILES: NC(CCc1ccccc1)P(=O)(O)CC(Cc1ccccc1)C(=O)O (stereo not shown) [Co4]
- Ki [2]: 0.013 µM

SMILES: c1ccc(Cc2ccc(OCCn3ccnc3)cc2)cc1 [Compound 13]
- inhibition at 30 µM [4]: 41%
- Hill Slope [1, 9]: 1.3
- Emax [1, 9]: 77%
- IC50 [1, 10]: 31.6 µM
- Hill Slope [1, 11]: 0.9 and 1.3 and 1.5
- Maximum Effect [1, 11]: 74%
- Emax [1, 11]: 67%
- IC50 [1, 12]: 31.6 µM and 15.8 µM
- IC50 [1, 8]: 21.9 µM
- Hit Confirmation [1]: confirmed
- EC50 [5, 13]: 2.14 µM
- EC50 ([5]; 96 h, read-out: EC50 (T. cruzi amastigotes)): 2 µM
- Emax ([5]; individual replicates): 94%
- EC50 [5, 14]: 1.58 µM
- Max Effect (T. cruzi) ([5]; individual replicates): 97 and 84 and 87
- pEC50 (T. cruzi) ([5]; individual replicates): 5.6 and 5.7
- CC50 at 96 h [6, 15]: 5.01 µM
- Selectivity index (fold window Tc/Vero) (Vero cells): 2.3 fold
- Max Effect (Vero) (Vero cells): 95 and 94 and 89 and 87
- pEC50 (Vero) (Vero cells): 5.3 and 5.4 and 5.2
- CC50 at 72 h [7, 16]: 43.7 µM
- CC50 at 72 h ([7]; HepG2 cells, read-out: CC50 (HepG2)): 43 µM
- Selectivity window based on the HepG2 data (HepG2 cells; T. cruzi vs HepG2): 20 fold
- Max Effect (HepG2) (HepG2 cells): 81 and 82
- pEC50 (HepG2) (HepG2 cells): 4.4

SMILES: O=C(NO)C(NC(=O)C12CC3CC(CC(C3)C1)C2)c1ccc(-c2cc(F)c(F)c(F)c2)cc1 (stereo not shown) [Compound 6k]
- Ki [2]: 0.0289 µM

SMILES: N#CC(=Cc1cn(Cc2ccc(C(=O)O)o2)c2ccccc12)c1nc2ccccc2[nH]1 [Compound 15]
- inhibition at 30 µM [4]: 39%
- Hill Slope [1, 9]: 1.5
- Emax [1, 9]: 92%
- IC50 [1, 10]: 12.6 µM
- Hill Slope [1, 11]: 1.7 and 1.4 and 1.5
- Maximum Effect [1, 11]: 87%
- Emax [1, 11]: 88%
- IC50 [1, 12]: 25.1 µM and 31.6 µM
- IC50 [1, 8]: 22.9 µM
- Hit Confirmation [1]: confirmed
- EC50 ([5]; 96 h, read-out: pEC50 (T. cruzi) +/- StDev (converted)): > 50.1 µM
- Emax ([5]; individual replicates): 24%
- EC50 [5, 14]: > 50.1 µM
- Max Effect (T. cruzi) ([5]; individual replicates): 19 and 38
- CC50 at 96 h [6]: 38 µM
- Max Effect (Vero) (Vero cells): 63 and 36 and 65 and 66
- pEC50 (Vero) (Vero cells): 4.4 and < 4.3 and 4.5 and 4.3
- CC50 at 72 h ([7]; two independent experiments, read-out: pCC50 (HepG2) (converted)): > 100 µM
- Max Effect (HepG2) (HepG2 cells): 2.23 and 3
- pEC50 (HepG2) (HepG2 cells): < 4.0

SMILES: O=C(Cn1ccnc1[N+](=O)[O-])NCc1ccccc1 [benznidazole]
- EC50 [3]: 2 µM
- pEC50 (T. cruzi) [3]: 5.7

SMILES: O=C(NCC(=O)N1CCc2ccccc2C1)C1CCCCC1 [Compound 9]
- inhibition at 30 µM [4]: 49%
- Hill Slope [1, 9]: 1.7
- Emax [1, 9]: 54%
- IC50 [1, 10]: 15.8 µM
- Hill Slope [1, 11]: 0.749 and 0.7 and 0.655
- Maximum Effect [1, 11]: 67% and 63%
- Emax [1, 11]: 64%
- IC50 [1, 12]: 39.8 µM and 31.6 µM
- IC50 [1, 8]: 28.8 µM
- Hit Confirmation [1]: confirmed
- EC50 [5, 13]: > 50.1 µM
- Emax ([5]; individual replicates): 31%
- EC50 [5, 14]: > 50.1 µM
- Max Effect (T. cruzi) ([5]; individual replicates): 27 and 21 and 30
- CC50 at 96 h [6, 15]: > 50.1 µM
- Max Effect (Vero) (Vero cells): 7 and 4 and 15 and 11
- pEC50 (Vero) (Vero cells): < 4.3
- CC50 at 72 h [7, 16]: > 100 µM
- Max Effect (HepG2) (HepG2 cells): 3.76 and 2.85
- pEC50 (HepG2) (HepG2 cells): < 4.0
